Earlier results on 1 compound are cited in patent publication US20040229960A1, “Compositions and methods of administering tubulin binding agents for the treatment of ocular diseases” (priority 2001, published 2004).

The conditions of the data set: cited from earlier work.

As for `COc1ccc(/C=C\c2cc(OC)c(OC)c(OC)c2)cc1O` [CA4, combretastatin A4], the Solubility in water result is “essentially insoluble in water”.
